PubChem BioAssay (NCI)
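Where inhibition never reached the appropriate level, the endpoint shown equals the highest concentration tested. Otherwise, values were interpolated linearly from a five-concentration, 48-hour dose response in 96-well plates. Here, GI50 denotes the concentration required for 50% inhibition of growth. At the TGI there is no net growth.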

What was measured:
Experiment in all cases: inhibition of tumour cell growth, NCI panel, 48 h
OVCAR-8 ovarian = tested on: OVCAR-8 ovarian
HOP-62 NSCLC = tested on: HOP-62 NSCLC
A498 renal = tested on: A498 renal
MALME-3M melanoma = tested on: MALME-3M melanoma
PC-3 prostate = tested on: PC-3 prostate
DU-145 prostate = tested on: DU-145 prostate
MDA-MB-435 = tested on: MDA-MB-435
M14 melanoma = tested on: M14 melanoma
HOP-92 NSCLC = tested on: HOP-92 NSCLC
UACC-257 melanoma = tested on: UACC-257 melanoma
A549 NSCLC = tested on: A549 NSCLC
U251 CNS = tested on: U251 CNS
NCI/ADR-RES ovarian = tested on: NCI/ADR-RES ovarian
SK-MEL-28 melanoma = tested on: SK-MEL-28 melanoma
RXF 393 renal = tested on: RXF 393 renal
RPMI-8226 leukemia = tested on: RPMI-8226 leukemia
HL-60(TB) leukemia = tested on: HL-60(TB) leukemia
LOX IMVI melanoma = tested on: LOX IMVI melanoma
EKVX NSCLC = tested on: EKVX NSCLC
SF-539 CNS = tested on: SF-539 CNS
HS 578T breast = tested on: HS 578T breast
HCC-2998 colon = tested on: HCC-2998 colon
SK-MEL-5 melanoma = tested on: SK-MEL-5 melanoma
SNB-75 CNS = tested on: SNB-75 CNS
OVCAR-4 ovarian = tested on: OVCAR-4 ovarian
HCT-116 colon = tested on: HCT-116 colon
SK-OV-3 ovarian = tested on: SK-OV-3 ovarian
ACHN renal = tested on: ACHN renal
CAKI-1 renal = tested on: CAKI-1 renal
K-562 leukemia = tested on: K-562 leukemia
OVCAR-3 ovarian = tested on: OVCAR-3 ovarian
SNB-19 CNS = tested on: SNB-19 CNS
NCI-H460 lung = tested on: NCI-H460 lung
SW-620 colon = tested on: SW-620 colon
OVCAR-5 ovarian = tested on: OVCAR-5 ovarian
KM12 colon = tested on: KM12 colon
UACC-62 melanoma = tested on: UACC-62 melanoma
MOLT-4 leukemia = tested on: MOLT-4 leukemia
NCI-H522 lung = tested on: NCI-H522 lung
HT29 colon = tested on: HT29 colon
MCF7 breast = tested on: MCF7 breast
SF-295 CNS = tested on: SF-295 CNS
NCI-H226 lung = tested on: NCI-H226 lung
IGROV1 ovarian = tested on: IGROV1 ovarian
COLO 205 colon = tested on: COLO 205 colon
CCRF-CEM leukemia = tested on: CCRF-CEM leukemia
SR leukemia = tested on: SR leukemia
MDA-MB-468 breast = tested on: MDA-MB-468 breast
UO-31 renal = tested on: UO-31 renal
SN12C renal = tested on: SN12C renal
BT-549 breast = tested on: BT-549 breast
HCT-15 colon = tested on: HCT-15 colon
786-0 renal = tested on: 786-0 renal
SF-268 CNS = tested on: SF-268 CNS
SK-MEL-2 melanoma = tested on: SK-MEL-2 melanoma
MDA-MB-231 breast = tested on: MDA-MB-231 breast
NCI-H23 lung = tested on: NCI-H23 lung
TK-10 renal = tested on: TK-10 renal

For `Cn1cc(-c2nc(N)nnc2-c2c[nH]c3ccc(Br)cc23)c2cc(Br)cnc21`, the GI50 (OVCAR-8 ovarian) was 450 nM, the TGI (OVCAR-8 ovarian) was 9020 nM and the GI50 (HOP-62 NSCLC) was 420 nM. For the same compound, the TGI (HOP-62 NSCLC) was 19500 nM, the GI50 (A498 renal) was 662 nM and the TGI (A498 renal) was 5320 nM. The GI50 (MALME-3M melanoma) was 135 nM, the TGI (MALME-3M melanoma) was 20300 nM and the GI50 (PC-3 prostate) was 130 nM. It also gave a TGI (PC-3 prostate) of 30100 nM, a GI50 (DU-145 prostate) of 352 nM and a TGI (DU-145 prostate) of 12800 nM. For the same compound, the GI50 (MDA-MB-435) was 32 nM, the TGI (MDA-MB-435) was 120 nM and the GI50 (M14 melanoma) was 148 nM. The TGI (M14 melanoma) was 13900 nM, the GI50 (HOP-92 NSCLC) was 1270 nM and the TGI (HOP-92 NSCLC) was 11400 nM. The GI50 (UACC-257 melanoma) was 11000 nM, the TGI (UACC-257 melanoma) was 23500 nM and the GI50 (A549 NSCLC) was 455 nM. For the same compound, the TGI (A549 NSCLC) was 29100 nM, the GI50 (U251 CNS) was 349 nM and the TGI (U251 CNS) was 13300 nM. For the same compound, the GI50 (NCI/ADR-RES ovarian) was 432 nM, the TGI (NCI/ADR-RES ovarian) was 7080 nM and the GI50 (SK-MEL-28 melanoma) was 324 nM. It also gave a TGI (SK-MEL-28 melanoma) of 17800 nM, a GI50 (RXF 393 renal) of 167 nM and a TGI (RXF 393 renal) of 3840 nM. It also gave a GI50 (RPMI-8226 leukemia) of 422 nM, a TGI (RPMI-8226 leukemia) greater than 100000 nM and a GI50 (HL-60(TB) leukemia) of 144 nM. It also gave a TGI (HL-60(TB) leukemia) of 824 nM, a GI50 (LOX IMVI melanoma) of 299 nM and a TGI (LOX IMVI melanoma) of 15800 nM. It also gave a GI50 (EKVX NSCLC) of 881 nM, a TGI (EKVX NSCLC) of 23700 nM and a GI50 (SF-539 CNS) of 154 nM. For the same compound, the TGI (SF-539 CNS) was 532 nM, the GI50 (HS 578T breast) was 285 nM and the TGI (HS 578T breast) was 38000 nM. It also gave a GI50 (HCC-2998 colon) of 379 nM, a TGI (HCC-2998 colon) of 11400 nM and a GI50 (SK-MEL-5 melanoma) of 114 nM. For the same compound, the TGI (SK-MEL-5 melanoma) was 3910 nM, the GI50 (SNB-75 CNS) was 192 nM and the TGI (SNB-75 CNS) was 2910 nM. For the same compound, the GI50 (OVCAR-4 ovarian) was 978 nM, the TGI (OVCAR-4 ovarian) was 20200 nM and the GI50 (HCT-116 colon) was 141 nM. It also gave a TGI (HCT-116 colon) of 3360 nM, a GI50 (SK-OV-3 ovarian) of 432 nM and a TGI (SK-OV-3 ovarian) of 20200 nM. For the same compound, the GI50 (ACHN renal) was 748 nM, the TGI (ACHN renal) was 13200 nM and the GI50 (CAKI-1 renal) was 184 nM. It also gave a TGI (CAKI-1 renal) of 18200 nM, a GI50 (K-562 leukemia) of 49 nM and a TGI (K-562 leukemia) greater than 35600 nM. For the same compound, the GI50 (OVCAR-3 ovarian) was 64.9 nM, the TGI (OVCAR-3 ovarian) was 2510 nM and the GI50 (SNB-19 CNS) was 454 nM. The TGI (SNB-19 CNS) was 16500 nM, the GI50 (NCI-H460 lung) was 349 nM and the TGI (NCI-H460 lung) was 11200 nM. It also gave a GI50 (SW-620 colon) of 217 nM, a TGI (SW-620 colon) of 18400 nM and a GI50 (OVCAR-5 ovarian) of 422 nM. For the same compound, the TGI (OVCAR-5 ovarian) was 15600 nM, the GI50 (KM12 colon) was 146 nM and the TGI (KM12 colon) was 11300 nM. For the same compound, the GI50 (UACC-62 melanoma) was 47.3 nM, the TGI (UACC-62 melanoma) was 16400 nM and the GI50 (MOLT-4 leukemia) was 341 nM. It also gave a TGI (MOLT-4 leukemia) of 20300 nM, a GI50 (NCI-H522 lung) of 21.2 nM and a TGI (NCI-H522 lung) of 61.9 nM. For the same compound, the GI50 (HT29 colon) was 269 nM, the TGI (HT29 colon) was 1040 nM and the GI50 (MCF7 breast) was 58.3 nM. It also gave a TGI (MCF7 breast) of 15900 nM, a GI50 (SF-295 CNS) of 75 nM and a TGI (SF-295 CNS) of 12800 nM. The GI50 (NCI-H226 lung) was 582 nM, the TGI (NCI-H226 lung) was 8660 nM and the GI50 (IGROV1 ovarian) was 398 nM. The TGI (IGROV1 ovarian) was 18800 nM, the GI50 (COLO 205 colon) was 248 nM and the TGI (COLO 205 colon) was 762 nM. The GI50 (CCRF-CEM leukemia) was 279 nM, the TGI (CCRF-CEM leukemia) was greater than 100000 nM and the GI50 (SR leukemia) was 43 nM. The TGI (SR leukemia) was greater than 52900 nM, the GI50 (MDA-MB-468 breast) was 69 nM and the TGI (MDA-MB-468 breast) was 1030 nM. The GI50 (UO-31 renal) was 349 nM, the TGI (UO-31 renal) was 16500 nM and the GI50 (SN12C renal) was 423 nM. For the same compound, the TGI (SN12C renal) was 14500 nM, the GI50 (BT-549 breast) was 227 nM and the TGI (BT-549 breast) was 7720 nM. It also gave a GI50 (HCT-15 colon) of 177 nM, a TGI (HCT-15 colon) of 11000 nM and a GI50 (786-0 renal) of 422 nM. The TGI (786-0 renal) was 16100 nM, the GI50 (SF-268 CNS) was 1620 nM and the TGI (SF-268 CNS) was 22000 nM. It also gave a GI50 (SK-MEL-2 melanoma) of 194 nM, a TGI (SK-MEL-2 melanoma) of 14800 nM and a GI50 (MDA-MB-231 breast) of 442 nM. The TGI (MDA-MB-231 breast) was 11700 nM, the GI50 (NCI-H23 lung) was 373 nM and the TGI (NCI-H23 lung) was 14900 nM. For the same compound, the GI50 (TK-10 renal) was 12600 nM and the TGI (TK-10 renal) was 50400 nM.
